Some results are limits rather than exact numbers.

In the assay the test system is HCV replicon. In words: HCV replicon replication assay (NPT ELISA) in Huh-7 replicon-containing cells. Conditions: Hepatitis C virus, 72 h; inhibition of HCV replicon replication, Huh-7 HCV replicon-containing cells, three days. Format: cell-based, Hepatitis C virus. As for the experimental part:
Compounds claimed herein are tested for the ability to inhibit viral replication of the Hepatitis C replicon in cultured cells in which the HCV replicon construct has been incorporated. The HCV replicon system was described by Bartenschlager, et. al (Science, 285, pp. 110-113 (1999)). The replicon system is predictive of in vivo anti-HCV activity; compounds that are active in humans uniformly evidence activity in the replicon assay.
In this assay HCV replicon containing cells are treated with different concentrations of the test compound to ascertain the ability of the test compound to suppress replication of the HCV replicon. As a positive control, HCV replicon-containing cells are treated with different concentrations of interferon alpha, a known inhibitor of HCV replication. The replicon assay system includes Neomycin Phosphotransferase (NPT) as a component of the replicon itself in order to detect the transcription of replicon gene products in the host cell. Cells in which the HCV replicon is actively replicating have high levels of NPT; the level of NPT is proportional to HCV replication. […] The NPT level of each sample is measured using a captured ELISA.
The HCV replicon contains, 5′-3′, the HCV-IRES, the neomycin phosphotransferase (neo) gene, the IRES of encephalomyocarditis virus, which directs translation of HCV sequences NS3 to NS5B, and the 3′-NTR. The sequence of the HCV replicon has been deposited in GenBank (Accession no. AJ242652).
The replicon is transfected into Huh-7 cells using standard methods such as electroporation.
HCV replicon-containing cells are rinsed with once PBS once; 2 mls of trypsin are then added. Cells are incubated at 37° C. in a 5% CO2 incubator for 3-5 minutes. 10 mls of complete medium is added to stop the reaction. Cells are blown gently, put into a 15 ml tube, and spun at 1200 rpm for four minutes. The trypsin/medium solution is removed and 5 mls of medium (500 ml DMEM (high glucose)) from BRL catalog #12430-054; 50 mls 10% FBS, 5% Geneticin G418 (50 mg/ml, BRL catalog #10131-035), 5 ml MEM non-essential amino acids (100×BRL #11140-050) and 5 ml pen-strep (BRL #15140-148) is added. The cells and media are mixed carefully
Cells are plated with screening medium (500 ml DMEM (BRL #21063-029), 50 ml FBS (BRL #10082-147) and 5 ml MEM non-essential amino acid (BRL #11140-050) at 6000-7500 cells/100 μl/well of 96 well plate (6-7.5×10^5 cells/10 ml/plate). Plates are placed into 37° C. 5% CO2 incubator overnight. 6D. Assay
The following morning, drugs (test compounds or interferon alpha) are diluted in 96 well U bottom plates with media or DMSO/media, depending on the final concentration chosen for screening. Generally for 6 concentrations of each test compounds ranging from 10 micromolar to 0.03 micromolar are applied. 100 μl of the test compound dilution is placed in wells of the 96 well plate containing the HCV replicon cells. Media without drug is added to some wells as a negative controls. DMSO is known to affect cell growth. Therefore, if drugs diluted in DMSO are used, all wells, including negative control (media only) and positive control (interferon alpha) wells, must contain the same concentration of DMSO, for single dose screening. The plates are incubated at 37° C. in a humidified 5% CO2 environment for three days.
On day four, the NTPII assay is quantitated. The medium is poured from the plates and the plates are washed once in 200 μl of PBS. The PBS is then decanted and the plates tapped in a paper towel to remove any remaining PBS. Cells are fixed in situ with 100 id/well of pre-cooled (−20° C.) methanol:acetone (1:1) and the plates are placed at −20° C. for 30 minutes.
The fixing solution is poured from the plates and the plates allowed to air-dry completely (approximately one hour). The appearance of the dried cell layer is recorded and the density of the cells in the toxic wells is scored with the naked eye. […]
With `C=CC1CC1(NC(=O)[C@@H]1C[C@@H](Oc2cc(-c3ccccc3)nc3cc(OC)ccc23)CN1C(=O)[C@H](c1ccccc1)N1CCCCC1)C(=O)O` (stereo partly drawn) [Compound 56, 1-((2S,4R)-4-(7-methoxy-2-phenylquinolin-4-yloxy)-1-((S)-2-phenyl-2-(piperidin-1-yl)acetyl)pyrrolidine-2-carboxamido)-2-vinylcyclopropanecarboxylic acid], the EC50 – broadly, the concentration needed to bring the measured effect to its halfway point – was greater than 100 µM.
The molecule `C=CC1CC1(NC(=O)[C@@H]1C[C@@H](Oc2cc(-c3ccccc3)nc3cc(OC)ccc23)CN1C(=O)[C@H](C(C)C)N1CCCCC1)C(=O)O` (stereo partly drawn) [Compound 57, 1-((2S,4R)-4-(7-methoxy-2-phenylquinolin-4-yloxy)-1-((S)-3-methyl-2-(piperidin-1-yl)butanoyl)pyrrolidine-2-carboxamido)-2-vinylcyclopropanecarboxylic acid] had a concentration for a half-maximal effect (EC50) of less than 100 µM.
For the molecule `C=CC1CC1(NC(=O)[C@@H]1C[C@@H](Oc2cc(-c3ccccc3)nc3cc(OC)ccc23)CN1C(=O)[C@H](C1CCCCC1)N1CCCCC1)C(=O)O` (stereo partly drawn) [Compound 58, 1-((2S,4R)-1-((S)-2-cyclohexyl-2-(piperidin-1-yl)acetyl)-4-(7-methoxy-2-phenylquinolin-4-yloxy)pyrrolidine-2-carboxamido)-2-vinylcyclopropanecarboxylic acid], the EC50 is less than 100 µM.
Then `C=CC1CC1(NC(=O)[C@@H]1C[C@@H](Oc2cc(-c3ccccc3)nc3cc(OC)ccc23)CN1C(=O)[C@H](C)N1CCCCC1)C(=O)O` (stereo partly drawn) [Compound 59, 1-((2S,4R)-4-(7-methoxy-2-phenylquinolin-4-yloxy)-1-((S)-2-(piperidin-1-yl)propanoyl)pyrrolidine-2-carboxamido)-2-vinylcyclopropanecarboxylic acid], with greater than 100 µM; and `CCOC(=O)C12CC1/C=C\CCCCC[C@H](N1CCCCC1)C(=O)N1C[C@H](Oc3cc(-c4ccccc4)nc4cc(OC)ccc34)C[C@H]1C(=O)N2` (stereo partly drawn) [Compound 60, (2R,6S,16aS,Z)-ethyl 2-(7-methoxy-2-phenylquinolin-4-yloxy)-5,16-dioxo-6-(piperidin-1-yl)-1,2,3,5,6,7,8,9,10,11,13a,14,14a, 15,16,16a-hexadecahydrocyclopropa [e]pyrrolo[1,2-a] [1,4]diazacyclopentadecine-14a-carboxylatc], with less than 100 µM.
For the molecule `COc1ccc2c(O[C@@H]3C[C@H]4C(=O)NC5(C(=O)O)CC5/C=C\CCCCC[C@H](N5CCCCC5)C(=O)N4C3)cc(-c3ccccc3)nc2c1` (stereo partly drawn) [Compound 61, (2R,6S,16aS,Z)-2-(7-methoxy-2-phenylquinolin-4-yloxy)-5,16-dioxo-6-(pipcridin-1-yl)-1,2,3,5,6,7,8,9,10,11,13a,14,14a, 15,16,16a-hexadecahydrocyclopropa [e]pyrrolo[1,2-a] [1,4]diazacyclopentadecine-14a-carboxylic acid], the half-maximal effective concentration (EC50) is less than 100 µM.
Then `CCOC(=O)[C@]12C[C@@H]1/C=C\CCCCC[C@H](N1CCCCC1)C(=O)N1C[C@H](Oc3cc(-c4ccccc4)nc4cc(OC)ccc34)C[C@H]1C(=O)N2` [Compound 62, (2R,6S,13aR,14aS,16aS,Z)-ethyl 2-(7-methoxy-2-phenylquinolin-4-yloxy)-5,16-dioxo-6-(piperidin-1-yl)-1,2,3,5,6,7,8,9,10,11,13a,14,14a, 15,16,16a-hexadecahydrocyclopropa [e]pyrrolo[1,2-a] [1,4]diazacyclopentadecine-14a-carboxylate], with less than 100 µM; and `CCOC(=O)[C@@]12C[C@H]1/C=C\CCCCC[C@H](N1CCCCC1)C(=O)N1C[C@H](Oc3cc(-c4ccccc4)nc4cc(OC)ccc34)C[C@H]1C(=O)N2` [Compound 63, (2R,6S,13aS,14aR,16aS,Z)-ethyl 2-(7-methoxy-2-phenylquinolin-4-yloxy)-5,16-dioxo-6-(piperidin-1-yl)-1,2,3,5,6,7,8,9,10,11,13a,14,14a, 15,16,16a-hexadecahydrocyclopropa [e]pyrrolo[1,2-a] [1,4]diazacyclopentadecine-14a-carboxylate], with less than 100 µM.
Then `C=CC1CC1(NC(=O)[C@@H]1C[C@@H](Oc2cc(-c3ccccc3)nc3cc(OC)ccc23)CN1C(=O)[C@H](C1CCCCC1)N1CCCCC1)C(=O)NS(=O)(=O)C1CC1` (stereo partly drawn) [Compound 64, (2S,4R)-1-((S)-2-cyclohexyl-2-(piperidin-1-yl)acetyl)-N-(1-(cyclopropylsulfonylcarbamoyl)-2-vinylcyclopropyl)-4-(7-methoxy-2-phenylquinolin-4-yloxy)pyrrolidine-2-carboxamide], with less than 100 µM; and `C=C[C@H]1C[C@@]1(NC(=O)[C@@H]1C[C@@H](Oc2cc(-c3ccccc3)nc3cc(OC)ccc23)CN1C(=O)[C@H](c1ccccc1)N1CCCCC1)C(=O)NS(=O)(=O)C1CC1` [Compound 65, (2S,4R)-N-((1S,2R)-1-(cyclopropylsulfonylcarbamoyl)-2-vinylcyclopropyl)-4-(7-methoxy-2-phenylquinolin-4-yloxy)-1-((S)-2-phenyl-2-(piperidin-1-yl)acetyl)pyrrolidine-2-carboxamide], with less than 100 µM.
`C=C[C@@H]1C[C@]1(NC(=O)[C@@H]1C[C@@H](Oc2cc(-c3ccccc3)nc3cc(OC)ccc23)CN1C(=O)[C@H](c1ccccc1)N1CCCCC1)C(=O)NS(=O)(=O)C1CC1` [Compound 66, (2S,4R)-N-((1R,2S)-1-(cyclopropylsulfonylcarbamoyl)-2-vinylcyclopropyl)-4-(7-methoxy-2-phenylquinolin-4-yloxy)-1-((S)-2-phenyl-2-(piperidin-1-yl)acetyl)pyrrolidine-2-carboxamide] had an EC50 of less than 100 µM.
Under `C=CC1CC1(NC(=O)[C@@H]1C[C@@H](Oc2cc(-c3ccccc3)nc3cc(OC)ccc23)CN1C(=O)[C@H](C)N1CCCCC1)C(=O)NS(=O)(=O)C1CC1` (stereo partly drawn) [Compound 67, (2S,4R)-N-(1-(cyclopropylsulfonylcarbamoyl)-2-vinylcyclopropyl)-4-(7-methoxy-2-phenylquinolin-4-yloxy)-1-((S)-2-(piperidin-1-yl)propanoyl)pyrrolidine-2-carboxamide] stands less than 100 µM; under `C=CC1CC1(NC(=O)[C@@H]1C[C@@H](Oc2cc(-c3ccccc3)nc3cc(OC)ccc23)CN1C(=O)[C@H](C(C)C)N1CCCCC1)C(=O)NS(=O)(=O)C1CC1` (stereo partly drawn) [Compound 68, (2S,4R)-N-(1-(cyclopropylsulfonylcarbamoyl)-2-vinylcyclopropyl)-4-(7-methoxy-2-phenylquinolin-4-yloxy)-1-((S)-3-methyl-2-(piperidin-1-yl)butanoyl)pyrrolidine-2-carboxamide], less than 100 µM.
Take `C=CC1CC1(NC(=O)[C@@H]1C[C@@H](Oc2cc(-c3ccccc3)nc3cc(OC)ccc23)CN1C(=O)[C@H](CC(C)C)N1CCCCC1)C(=O)NS(=O)(=O)C1CC1` (stereo partly drawn) [Compound 69, (2S,4R)-N-(1-(cyclopropylsulfonylcarbamoyl)-2-vinylcyclopropyl)-4-(7-methoxy-2-phenylquinolin-4-yloxy)-1-((S)-4-methyl-2-(piperidin-1-yl)pentanoyl)pyrrolidine-2-carboxamide]: the concentration giving a half-maximal response (EC50) is less than 100 µM.

(Values after US8435984B2, “Tertiary amine substituted peptides useful as inhibitors of HCV replication” (Achillion Pharmaceuticals, Inc., priority 2007, dated 2013).)
